Results on 14 compounds are retold here after ChEMBL document CHEMBL4043071, “Neuroprotective Caffeoylquinic Acid Derivatives from the Flowers of Chrysanthemum morifolium” (J Nat Prod, 2017).

Data set [1] has as its system SH-SY5Y. Briefly: Neuroprotective activity in human SH-SY5Y cells assessed as reduction in glutamate-induced cytotoxicity at 10 uM relative to untreated control. Format: functional, cell-based.
The subject of data set [2] is SH-SY5Y. Briefly: Neuroprotective activity in human SH-SY5Y cells assessed as reduction in hydrogen peroxide-induced cytotoxicity by measuring cell viability level at 10 uM (reference value: 50.7+/- 2.6%). In kind it is functional.
Data set [3] concerns SH-SY5Y. Description: Neuroprotective activity in human SH-SY5Y cells assessed as reduction in oxygen-glucose deprivation-induced cytotoxicity at 10 uM relative to untreated control. In kind it is functional, cell-based.
In data set [4] the test system is SH-SY5Y. Briefly: Cytotoxicity against human SH-SY5Y cells assessed as reduction in cell viability level at 10 uM relative to untreated control. Format: cell-based.

SMILES strings stand for the structures. Calls of active or inactive are those of the source. No cut-off for these calls is given here.

Turning to `O=C(/C=C/c1ccc(O)c(O)c1)O[C@@H]1[C@H](O)C[C@@](O)(C(=O)O)C[C@H]1OC(=O)/C=C/c1ccc(O)c(O)c1`, the result in data set [1] and in data set [3] was inactive. For the same compound, the Activity in data set [2] is recorded as 75.2%.
On to `CC(=O)OC[C@H]1O[C@@H](Oc2cc(O)c3c(=O)cc(-c4ccc(O)c(O)c4)oc3c2)[C@H](O)[C@@H](O)[C@@H]1O`, for which the outcome in data set [1] and in data set [3] was inactive.
On to `O=C(/C=C/c1ccc(O)c(O)c1)O[C@@H]1[C@H](O)C[C@@](O)(C(=O)O)C[C@H]1OC(=O)[C@@H]1[C@@H]2O[C@@](CO)(C=CC2=O)[C@H]1c1ccc(O)c(O)c1`, for which the outcome in data set [1] and in data set [3] was inactive. Also, the Activity in data set [2] worked out at 76.7%.
In the case of `O=C(/C=C/c1ccc(O)c(O)c1)O[C@@H]1[C@H](O)C[C@@](O)(C(=O)O)C[C@H]1OC(=O)[C@@H]1[C@@H](c2ccc(O)c(O)c2)[C@@]2(CO)C=CC(=O)[C@@H]1O2`, the outcome in data set [1] and in data set [3] was inactive. The Activity in data set [2] stood at 78.4%.
For `CCCC[C@@H]1OC(=O)c2ccccc21` [(3S)-BUTYLPHTHALIDE], the Activity in data set [2] is on record as 73.9%.
`O=c1cc(-c2ccc(O)c(O)c2)oc2cc(O[C@@H]3O[C@H](CO)[C@@H](O)[C@H](O)[C@H]3O)cc(O)c12` [GALUTEOLIN]: the result in data set [1] and in data set [3] was inactive. The Activity in data set [2] is 87.6%.
On to `O=C(/C=C/c1ccc(O)c(O)c1)O[C@@H]1C[C@@](O)(C(=O)O)C[C@@H](O)[C@@H]1OC(=O)[C@@H]1[C@@H](c2ccc(O)c(O)c2)[C@@]2(CO)C=CC(=O)[C@@H]1O2`, for which the outcome in data set [1] and in data set [3] was inactive. In data set [2], the Activity came to 75.6%.
Turning to `O=c1cc(-c2ccc(O[C@@H]3O[C@H](CO)[C@@H](O)[C@H](O)[C@H]3O)c(O)c2)oc2cc(O[C@@H]3O[C@H](CO)[C@@H](O)[C@H](O)[C@H]3O)cc(O)c12`, the result in data set [1] and in data set [3] was inactive.
Turning to `O=C(/C=C/c1ccc(O)c(O)c1)O[C@@H]1C[C@@](OC(=O)/C=C/c2ccc(O)c(O)c2)(C(=O)O)C[C@@H](O)[C@@H]1O` [CYNARIN], the result in data set [1] and in data set [3] was inactive. In addition, the Activity in data set [2] is reported as 77.2%.
For `CC(=O)O[C@@H]1[C@H](O)C[C@@](O)(C(=O)O)C[C@H]1OC(=O)/C=C/c1ccc(O)c(O)c1`, the outcome in data set [1] and in data set [3] was inactive. In addition, in data set [4], the Activity entry was “Toxic”.
As to `COc1ccc(-c2cc(=O)c3c(O)cc(O[C@@H]4O[C@H](CO)[C@@H](O)[C@H](O)[C@H]4O)cc3o2)cc1O`, the outcome in data set [1] and in data set [3] was inactive.
As to `O=C(/C=C/c1ccc(O)c(O)c1)O[C@@H]1C[C@](O)(C(=O)O)C[C@@H](O)[C@H]1O`, the result in data set [1], in data set [2] and in data set [3] was inactive.
Regarding `O=c1cc(-c2ccc(O)cc2)oc2cc(O[C@@H]3O[C@H](CO)[C@@H](O)[C@H](O)[C@H]3O)cc(O)c12`, the outcome in data set [1] and in data set [3] was inactive.
For `O=C(O)[C@H]1O[C@@H](Oc2cc(O)c3c(=O)cc(-c4ccc(O)c(O)c4)oc3c2)[C@H](O)[C@@H](O)[C@@H]1O`, the outcome in data set [1] and in data set [3] was inactive. Also, the Activity in data set [2] is recorded as 80.9%.
